What was measured:
A549 [1] = test: Antiproliferative activity against human A549 cells over-expressing LSD1 assessed as reduction in cell viability measured after 72 hrs by MTT assay; conditions: A549, 72 h
NCI-H1299 [2] = test: Antiproliferative activity against human NCI-H1299 cells over-expressing LSD1 assessed as reduction in cell viability measured after 72 hrs by MTT assay; conditions: NCI-H1299, 72 h
SMMC-7721 [3] = test: Antiproliferative activity against human SMMC7721 over-expressing LSD1 cells assessed as reduction in cell viability measured after 72 hrs by MTT assay; conditions: SMMC-7721, 72 h
A2780 [4] = test: Antiproliferative activity against human A2780 cells over-expressing LSD1 assessed as reduction in cell viability measured after 72 hrs by MTT assay; conditions: A2780, 72 h
HCT-116 [5] = test: Antiproliferative activity against human HCT116 cells over-expressing LSD1 assessed as reduction in cell viability measured after 72 hrs by MTT assay; conditions: HCT-116, 72 h
MCF7 [6] = test: Antiproliferative activity against human MCF7 cells over-expressing LSD1 assessed as reduction in cell viability measured after 72 hrs by MTT assay; conditions: MCF7, 72 h
MDA-MB-231 [7] = test: Antiproliferative activity against human MDA-MB-231 cells over-expressing LSD1 assessed as reduction in cell viability measured after 72 hrs by MTT assay; conditions: MDA-MB-231, 72 h
PC-3 [8] = test: Antiproliferative activity against human PC3 cells over-expressing LSD1 assessed as reduction in cell viability measured after 72 hrs by MTT assay; conditions: PC-3, 72 h
DU-145 [9] = test: Antiproliferative activity against human DU145 cells over-expressing LSD1 assessed as reduction in cell viability measured after 72 hrs by MTT assay; conditions: DU-145, 72 h
A549 [10] = test: Antiproliferative activity against human A549 cells over-expressing LSD1 assessed as reduction in cell viability measured after 96 hrs by MTT assay; conditions: A549, 96 h
NCI-H1299 [11] = test: Antiproliferative activity against human NCI-H1299 cells over-expressing LSD1 assessed as reduction in cell viability measured after 96 hrs by MTT assay; conditions: NCI-H1299, 96 h
SMMC-7721 [12] = test: Antiproliferative activity against human SMMC7721 cells over-expressing LSD1 assessed as reduction in cell viability measured after 96 hrs by MTT assay; conditions: SMMC-7721, 96 h
A2780 [13] = test: Antiproliferative activity against human A2780 cells over-expressing LSD1 assessed as reduction in cell viability measured after 96 hrs by MTT assay; conditions: A2780, 96 h
HCT-116 [14] = test: Antiproliferative activity against human HCT116 cells over-expressing LSD1 assessed as reduction in cell viability measured after 96 hrs by MTT assay; conditions: HCT-116, 96 h
MCF7 [15] = test: Antiproliferative activity against human MCF7 cells over-expressing LSD1 assessed as reduction in cell viability measured after 96 hrs by MTT assay; conditions: MCF7, 96 h
MDA-MB-231 [16] = test: Antiproliferative activity against human MDA-MB-231 cells over-expressing LSD1 assessed as reduction in cell viability measured after 96 hrs by MTT assay; conditions: MDA-MB-231, 96 h
PC-3 [17] = test: Antiproliferative activity against human PC3 cells over-expressing LSD1 assessed as reduction in cell viability measured after 96 hrs by MTT assay; conditions: PC-3, 96 h
DU-145 [18] = test: Antiproliferative activity against human DU145 cells over-expressing LSD1 assessed as reduction in cell viability measured after 96 hrs by MTT assay; conditions: DU-145, 96 h

| IC50 (A549 [1]) | IC50 (NCI-H1299 [2]) | IC50 (SMMC-7721 [3]) | IC50 (A2780 [4]) | IC50 (HCT-116 [5]) | IC50 (MCF7 [6]) | IC50 (MDA-MB-231 [7]) | IC50 (PC-3 [8]) | IC50 (DU-145 [9]) | IC50 (A549 [10]) | IC50 (NCI-H1299 [11]) | IC50 (SMMC-7721 [12]) | IC50 (A2780 [13]) | IC50 (HCT-116 [14]) | IC50 (MCF7 [15]) | IC50 (MDA-MB-231 [16]) | IC50 (PC-3 [17]) | IC50 (DU-145 [18]) | SMILES |
| --- | --- | --- | --- | --- | --- | --- | --- | --- | --- | --- | --- | --- | --- | --- | --- | --- | --- | --- |
| 920 nM | 2010 nM | 2960 nM | 810 nM | 360 nM | 300 nM | 680 nM | 3110 nM | 2490 nM | 390 nM | 790 nM | 1340 nM | 340 nM | 250 nM | 220 nM | 410 nM | 1000 nM | 220 nM | O=C(N/N=C1\CCc2cccc(O)c21)c1cccc(S(=O)(=O)N2CCOCC2)c1 |
| 780 nM | 3330 nM | 3160 nM | 1130 nM | 480 nM | 410 nM | 710 nM | 2450 nM | 2950 nM | 400 nM | 980 nM | 1220 nM | 790 nM | 270 nM | 300 nM | 460 nM | 760 nM | 180 nM | O=C(N/N=C1\CCc2c(Cl)ccc(O)c21)c1cccc(S(=O)(=O)N2CCOCC2)c1 |

| SMILES | IC50 (A549 [1]) | IC50 (NCI-H1299 [2]) | IC50 (SMMC-7721 [3]) | IC50 (A2780 [4]) | IC50 (HCT-116 [5]) | IC50 (MCF7 [6]) | IC50 (MDA-MB-231 [7]) | IC50 (PC-3 [8]) | IC50 (DU-145 [9]) | IC50 (A549 [10]) | IC50 (NCI-H1299 [11]) | IC50 (SMMC-7721 [12]) | IC50 (A2780 [13]) | IC50 (HCT-116 [14]) | IC50 (MCF7 [15]) | IC50 (MDA-MB-231 [16]) | IC50 (PC-3 [17]) | IC50 (DU-145 [18]) |
| --- | --- | --- | --- | --- | --- | --- | --- | --- | --- | --- | --- | --- | --- | --- | --- | --- | --- | --- |
| C/C(=N\NC(=O)c1cccc(S(=O)(=O)N2CCOCC2)c1)c1cc(Cl)ccc1O | 2690 nM | 3010 nM | 15800 nM | 2140 nM | 650 nM | 440 nM | 1400 nM | 19700 nM | 13100 nM | 830 nM | 1730 nM | 5360 nM | 770 nM | 330 nM | 190 nM | 750 nM | 4450 nM | 620 nM |
